Literature values as cited in patent US11272841B2, “Indicator fluids, systems, and methods for assessing movement of substances within, to or from a cerebrospinal fluid, brain or spinal cord compartment of a cranio-spinal cavity of a human” (BRAINWIDESOLUTIONS AS, priority 2017, dated 2022).

Settings: cited from earlier work

## O=C([O-])CN1CCN(CC(=O)[O-])CCN([C@H](CO)[C@H](O)CO)CCN(CC(=O)[O-])CC1.[Gd+3] (racemic) [gadobutrol]
  Half-time of gadobutrol in blood: about 1.8 hours
